Data: patent publication US20070275904A1, “CONJUGATES OF AZIRIDINYL-EPOTHILONE ANALOGS AND PHARMACEUTICAL COMPOSITIONS COMPRISING SAME” (BRISTOL-MYERS SQUIBB COMPANY, priority 2006, published 2007)
Where two headings read alike, the source gives them in different places.

What was measured:
[1] = system: A2780Tax human ovarian carcinoma cell line; assay: In vitro MTS assay, paclitaxel-resistant A2780Tax versus A2780; format: cell-based
Protocol: (§1) In vitro cytotoxicity was assessed in tumor cells using a tetrazolium-based colorimetric assay which takes advantage of the metabolic conversion of MTS (3-(4,5-dimethylthiazol-2-yl)-5-(3-carboxymethoxyphenyl)-2-([…])-2H-tetrazolium, inner salt) to a reduced form that absorbs light at 492 nm. Cells were seeded 24 hr prior to addition of the epothilone, epothilone analog, conjugated epothilone, or conjugated epothilone analog. Following a 72 hour incubation at 37° C. with serially diluted compound, MTS, in combination with the electron coupling agent phenazine methosulfate, was added to the cells. The incubation was continued for 3 hours, then the absorbancy of the medium at 492 nm was measured with a spectrophotometer to obtain the number of surviving cells relative to control populations. The results are expressed as median cytotoxic concentrations (IC50 values).
(§2) Other epothilone analogs, e.g., aziridinyl epothilones, are known in the art (see, e.g., U.S. Pat. No. 6,399,638; Regueiro-Ren, A, et al. (2001) Org. Letters. 3:2693-96) and show potent antitumor cytotoxicity. For example, an MTS assay that compared the relative cytotoxic potency of a number of epothilone analogs against a pair of taxane-resistant cancer cell lines (HCTVM46 and […]) was conducted (see Table 1). HCTVM46 is a human colon carcinoma cell line derived from the sensitive HCT116 parent line, and is resistant to taxanes due to overexpression of the 170 kD p-glyprotein drug efflux transporter. A2780Tax is a human ovarian carcinoma cell line derived from the parent A2780 line, and is resistant to paclitaxel as a result of a mutation in the tubulin amino acid sequence that impairs the ability of paclitaxel to bind.

[2] = system: HCT116VM46 (HCTVM46) human colon carcinoma cell line; format: cell-based; conditions: R/S ratio = HCT116 IC50/HCT116VM46IC50 as printed
Protocol: as §1, §2

[3] = system: A2780 ovarian carcinoma cell line; assay: cells; format: cell-based, human; conditions: read-out: A2780 IC5
Protocol: as §1, §2
(§3) As is shown in Table 1, various aziridinyl epothilone analogs (Compounds CC-EE) show potent antitumor activity against both the HCT116 colon and A2780 ovarian carcinoma cell lines, compared to other known antitumor agents, e.g., paclitaxel, compound AA, and epothilone B.

[4] = system: HCT116 colon carcinoma cell line; assay: cells; format: cell-based, human; conditions: read-out: HCT116 IC50
Protocol: as §1, §2, §3

[5] = system: clonogenic KB cancer cells; assay: Clonogenic cell survival (colony formation) assay, KB cells; format: cell-based, human; conditions: FIG. 3; for fold by which compound G is more potent than the named compound (IC90): KB cells, 17 hours exposure
Protocol: Cancer cells were seeded at 3.0E+05 cells in a T75 flask with 10 ml of RPMI1640 media, free of folic acid, and containing 10% fetal bovine serum and 25 mM HEPES. Cells were grown in a 37° C. incubator containing 5% CO2 for 2 days. On day 2, supernatants were removed from the flasks, and the flasks were divided into 2 groups. One group of cells were incubated with 5 ml of media containing […] of folic acid (Sigma) for 30 minutes and the others were grown in 5 ml of media without added folic acid. Cells were then treated with 20 nM of epothilone, epothilone analog, conjugated epothilone, or conjugated epothilone analog for one hour. At the end of the incubation, the drugs were removed from the flasks and the cells were washed with PBS buffer 3×. After washing, 5 ml of complete media were added into each flask, and the cell was grown in the CO2 incubator for 23 hours. The next morning, the cells were removed from the flasks by trypsinization, cell numbers were determined, and then cells were plated in a 6 well plates. Ten days after plating, colonies were stained with crystal violet and counted. The surviving fractions were determined.
This is important because it is the aziridine epothilone analog, e.g., Compound G, that mediates the antitumor effects upon release from folic acid. […] The concentration needed to kill 90% of clonogenic KB cancer cells (IC90) was determined after a drug exposure duration of 17 hours.

[6] = target: T1, FR expressed on KB tumor cells (Homo sapiens, UniProt P15328); assay: Displacement of radiolabeled folic acid from FR on KB tumor cells; format: binding; conditions: compared to folic acid, RA of folic acid=1.0
T1 construct: FR expressed on KB tumor cells grown to confluence; endogenous in cells; host or cells: KB tumor cells
Protocol: The binding of folate conjugates of Compound AA to FR was determined in an assay that measures displacement of radiolabeled folic acid from FR expressed on KB tumor cells grown to confluence.

[7] = KB in vivo FRα(+) tumor model, xenografts in nude mice; conditions: mouse, in vivo; KB model, nude mice, IV; read-out: maximum tolerated dose (MTD)
Description: (§4) Female CD2F1 mice (Harlan Sprague-Dawley Inc., 20-22 g) maintained in a controlled environment and provided with water and food ad libitum were used in these studies. The murine FRα(−) Madison 109 (M109) lung carcinoma (Marks et al., 1977) and the FR-expressing (FRα(+)) 98M109 variant were used to evaluate the efficacy of the epothilone, epothilone analog (e.g., epothilone derivative), folate-epothilone conjugate, or folate-epothilone analog conjugate. In addition, the human head and neck epidermoid carcinoma KB grown in nude mice was also used for this purpose.
(§5) For administration of epothilones or epothilone analogs to mice, an excipient consisting of the following was used: CREMOPHOR®/ethanol/water (1:1:8, v/v). The compounds were first dissolved in a mixture of CREMOPHOR®/ethanol (50:50). Final dilution to the required dosage strength was made less than 1 hr before drug administration. Mice were administered the agents by bolus IV injection through the tail vein. Folate-epothilone conjugates or folate-epothilone analog conjugates were prepared in sterile phosphate buffered saline and administered to mice by IV bolus injection through the tail vein at a volume of 0.01 mL/g of mice. Treatment of each animal was based on individual body weight. […]
(§6) Tumor response was determined by measurement of tumors with a caliper twice a week, until the tumors reached a predetermined “target” size of 1 gm. […]
(§7) Antitumor activity was evaluated at the maximum tolerated dose (MTD) which is defined as the dose level immediately […] which excessive toxicity (i.e. more than one death) occurred. When death occurred, the day of death was recorded. […]
(§8) To estimate tumor cell kill, the tumor volume doubling time (TVDT) was first calculated with the formula: TVDT=Median time (days) for control tumors to reach target size−Median time (days) for control tumors to reach half the target size And, Log cell kill=T−C÷(3.32×TVDT) Statistical evaluations of data were performed using Gehan's generalized Wilcoxon test.

[8] = FRα(−) M109 parent tumor model in mice; format: in vivo; conditions: female, CD2F1, mouse, in vivo, M109 model, IV, read-out: maximum tolerated dose (MTD)
Description: as §4
(§9) For administration of epothilones or epothilone analogs to mice, an excipient consisting of the following was used: CREMOPHOR®/ethanol/water (1:1:8, v/v). The compounds were first dissolved in a mixture of CREMOPHOR®/ethanol (50:50). Final dilution to the required dosage strength was made less than 1 hr before drug administration. Mice were administered the agents by bolus IV injection through the tail vein. Folate-epothilone conjugates or folate-epothilone analog conjugates were prepared in sterile phosphate buffered saline and administered to mice by IV bolus injection through the tail vein at a volume of 0.01 mL/g of mice. Treatment of each animal was based on individual body weight.
(§10) The required number of animals needed to detect a meaningful response were pooled at the start of the experiment and each was given a subcutaneous inoculation of a tumor brei (2% w/v). Tumors were allowed to grow for 4 days. On the fourth day, animals were evenly distributed to various treatment and control groups. Treated animals were checked daily for treatment related toxicity/mortality. Each group of animals was weighed before the initiation of treatment (Wt1) and then again following the last treatment dose (Wt2). The difference in body weight (Wt2−Wt1) provides a measure of treatment-related toxicity.
(§11) Tumor response was determined by measurement of tumors with a caliper twice a week, until the tumors reached a predetermined “target” size of 1 gm. Tumor weights (mg) were estimated from the formula: Tumor weight=(length×width^2)÷2
as §7, §8

[9] = system: FRα(−) M109 murine lung carcinoma; assay: FRα(−) M109 parent tumor model in mice; format: in vivo; conditions: IV bolus, FIG. 5
Description: as §4, §9, §10, §11, §7, §8

[10] = system: KB nasopharyngeal epidermoid carcinoma xenografts; assay: KB in vivo FRα(+) tumor model, xenografts in nude mice; conditions: FIG. 4
Description: as §4, §5, §6, §7, §8

FRα(+) 98M109 tumors = assay: FRα(+) 98M109 tumor model, competition with a folate analog; format: in vivo, mice; conditions: folate analog at 20-fold excess of the dose of compound J; FIG. 6
Description: Female CD2F1 mice (Harlan Sprague-Dawley Inc., 20-22 g) maintained in a controlled environment and provided with water and food ad libitum were used in these studies. The murine FRα(−) Madison 109 (M109) lung carcinoma (Marks et al., 1977) and the FR-expressing (FRα(+)) 98M109 variant were used to evaluate the efficacy of the epothilone, epothilone analog (e.g., epothilone derivative), folate-epothilone conjugate, or folate-epothilone analog conjugate. In addition, the human head and neck epidermoid carcinoma KB grown in nude mice was also used for this purpose. […]
as §6, §7, §8

Phase II clinical trials = conditions: in vivo
[11] = Homo sapiens, HCT-116, Mean IC50 ± SD from four separate experiments, MTS, 72 hour incubation
[12] = Mean IC50 ± SD from four separate experiments, MTS, 72 hour incubation

T1 sequence (P15328 25-234): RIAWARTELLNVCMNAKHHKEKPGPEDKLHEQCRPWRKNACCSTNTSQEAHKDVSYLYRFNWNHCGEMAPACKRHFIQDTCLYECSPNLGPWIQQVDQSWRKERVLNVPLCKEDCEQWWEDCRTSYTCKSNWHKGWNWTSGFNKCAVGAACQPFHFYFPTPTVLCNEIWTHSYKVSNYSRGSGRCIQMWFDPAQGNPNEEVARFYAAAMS

C/C(=C\c1csc(C)n1)C1C[C@H]2[C@@H](CCC[C@H](C)[C@H](O)[C@@H](C)C(=O)C(C)(C)[C@@H](O)CC(=O)O1)N2C (stereo partly drawn) [DD]
R/S Ratio (A2780) [1]: 4.1 | R/S Ratio (HCT116) [2]: 0.6 | IC50 ([3]; Homo sapiens, A2780, 72 h): 0.25 ± 0.06 nM | IC50 ([4]; Homo sapiens, HCT-116, 72 h): 0.37 ± 0.13 nM

C/C(=C\c1csc(C)n1)[C@@H]1CC2[C@@H](CCC[C@H](C)[C@H](O)[C@@H](C)C(=O)C(C)(C)[C@@H](O)CC(=O)O1)[N@@]2CCO (relative stereo) [Compound G, [1S-[1R*,3R*(E),7R*,10S*,11R*,12R*,16S*]]-7,11-Dihydroxy-17-[2-hydroxyethyl]-8,8,10,12-tetramethyl-3-[1-methyl-2-(2-methyl-4-thiazolyl)ethenyl]-4-oxa-17-azabicyclo[14.1.0]heptadecane-5,9-dione]
IC90, concentration needed to kill 90% of clonogenic KB cancer cells ([5]; drug exposure duration of 17 hours): 4.3 nM

CC(=O)O[C@H]1C(=O)[C@@]2(C)[C@H]([C@H](OC(=O)c3ccccc3)[C@]3(O)C[C@H](OC(=O)[C@H](O)[C@@H](NC(=O)c4ccccc4)c4ccccc4)C(C)=C1C3(C)C)[C@]1(OC(C)=O)CO[C@@H]1C[C@@H]2O [paclitaxel]
R/S Ratio (A2780) [1]: 22.1 | IC50 [4, 11]: 3.3 ± 1 nM

Nc1nc2ncc(CNc3ccc(C(=O)N[C@@H](CCC(=O)O)C(=O)O)cc3)nc2c(=O)[nH]1 [folic acid]
relative affinity (RA) for folate receptor [6]: 1.0

C/C(=C\c1csc(C)n1)[C@@H]1C[C@@H]2O[C@]2(C)CCC[C@H](C)[C@H](O)[C@@H](C)C(=O)C(C)(C)[C@@H](O)CC(=O)N1 [ixabepilone]
fold by which compound G is more potent than the named compound (IC90) [5]: ~6 fold | MTD [7]: 5 µmol/kg | MTD [8]: 5 µmol/kg | antitumor activity in FRα(−) M109 parent tumor model [9]: active at its MTD

C/C(=C\c1csc(C)n1)[C@@H]1C[C@H]2[C@@H](CCC[C@H](C)[C@H](O)[C@@H](C)C(=O)C(C)(C)[C@@H](O)CC(=O)O1)N2CCOC(=O)OCCSSC[C@H](NC(=O)[C@H](CC(=O)O)NC(=O)[C@H](CCCNC(=N)N)NC(=O)[C@H](CC(=O)O)NC(=O)CC[C@H](NC(=O)c1ccc(NCc2cnc3nc(N)[nH]c(=O)c3n2)cc1)C(=O)O)C(=O)O (stereo partly drawn) [Compound J]
toxicity at the two dose levels below MTD ([10]; KB model): minimal toxicity | antitumor effects compared at the MTDs ([10]; versus ixabepilone): superior antitumor effects than ixabepilone | relative affinity (RA) for folate receptor [6]: 0.77 | effect of co-administered folate analog on antitumor effects (FRα(+) 98M109 tumors): protect FRα(+) 98M109 tumors from the antitumor effects of compound J | MTD [8]: 2.4 µmol/kg | antitumor activity in FRα(−) M109 parent tumor model [9]: poor activity at all dose levels tested

C/C(=C\c1csc(C)n1)[C@@H]1C[C@@H]2O[C@]2(C)CCC[C@H](C)[C@H](O)[C@@H](C)C(=O)C(C)(C)[C@@H](O)CC(=O)O1 [Epothilone B]
R/S Ratio (A2780) [1]: 2.5 | R/S Ratio (HCT116) [2]: 0.5 | IC50 [3, 12]: 0.23 ± 0.09 nM | IC50 [4, 12]: 0.4 ± 0.13 nM

C/C(=C\c1csc(C)n1)C1C[C@@H]2N[C@@H]2CCC[C@H](C)[C@H](O)[C@@H](C)C(=O)C(C)(C)[C@@H](O)CC(=O)O1 (stereo partly drawn) [Compound CC]
fold by which compound G is more potent than the named compound (IC90) [5]: ~2 fold | R/S Ratio (A2780) [1]: 4.7 | R/S Ratio (HCT116) [2]: 3.1 | IC50 ([3]; Homo sapiens, A2780, 72 h): 3.4 ± 1.5 nM | IC50 ([4]; Homo sapiens, HCT-116, 72 h): 4.2 ± 2.8 nM

C/C(=C\c1csc(CN)n1)[C@@H]1CC2O[C@]2(C)CCC[C@H](C)[C@H](O)[C@@H](C)C(=O)C(C)(C)[C@@H](O)CC(=O)O1 (stereo partly drawn) [Compound AA]
fold by which compound G is more potent than the named compound (IC90) [5]: ~4 fold | R/S Ratio (A2780) [1]: 3 | activity in Phase II clinical trials (Phase II clinical trials): has activity | R/S Ratio (HCT116) [2]: 14.8 | IC50 ([3]; Homo sapiens, A2780, Mean IC50 ± SD from four separate experiments, MTS, 72 hour incubation): 1.1 ± 0.4 nM | IC50 [4, 11]: 1.2 ± 0.3 nM
